Patent publication US8097588B2, “Trophinin-binding peptides and uses thereof” (Sanford-Burnham Medical Research Institute, priority 2007, dated 2012)

Assays:
ErbB4 [1] = assay: Tyrosine kinase activity assay of anti-ErbB4 immunoprecipitates, HT-H cells; type: cell-based, human; settings: GWRQ peptide 5 μg/ml, EGF 20 ng/ml
Experimental: (§1) A431 cells and HT-H cells were cultured in 10 cm plate to sub-confluency.
(§2) Medium was replaced with DME without FCS, and cells were cultured for 3 days without FCS by exchanging medium every day. To HT-H or A431 monolayer kept at 4° C., Na3VO4 was added to 1 mM. GWRQ peptide (5 μg/ml) and/or recombinant human EGF (20 ng/ml) was added to each plate, and left at 4° C. for 30 min. Cells were harvested by rubber policeman, and washed with cold PBS. Cells were lysed in PBS containing 1% NP-40, and cell lysate was subjected to immunoprecipitation with 20 & I protein A beads pre-coated with control IgG or with rabbit anti-ErbB4 antibody (Sant Cruz Biotechnology). Immunoprecipitates were washed with cold PBS and suspended in cold PBS. A polyvinylchloride ELISA plate (Falcon) was coated with tyrosine kinase substrate poly EY (Sigma) in PBS (1 μg/100 μl) at 4° C. for 20 hours. After washing the plate, each immunoprecipitate as triplicate was added to each well in 100 & I kinase assay buffer (50 mM Hepes buffer, pH 7.4, 20 mM MgCl2, 1 mM MnCl2 2 mM Na3VO4, and 0.4 mM ATP), and reacted at room temperature for 30 min. […] After washing wells with TBS, peroxidase substrate ABTS (Pierce) was added and developed color was read in an ELISA reader at 405 mm.

A431 cells = assay: Western blot for tyrosine phosphorylated proteins, A431 cells; type: cell-based; settings: serum-depleted medium, 30 min
Experimental: (§3) Tyrosine phosphorylated proteins were detected by anti-phosphotyrosine antibody (4G10, mouse IgG). HT-H cells and A431 cells were grown in 10 cm plates to semi confluency, incubated in phosphorylation medium with GWRQ peptide (GWRQ-MAP; 2 μg/ml) at 4° C. for 15 min, and stimulated for phosphorylation at 37° C. for 0 min 120 min. Control HT-H cells were treated in the same manner without GWRQ peptide. HT-H cells were harvested using rubber policemen, collected by centrifugation, and washed once with cold PBS. Cells were lysed with 0.5% NP-40 in PBS containing phosphatase inhibitors (30 mM NaF, 40 mM β-glycerophosphate, 20 mM Na pyrophosphate, and 1 mM Na2VO4) and protease inhibitors (2 mM EGTA, 5 mM EDTA, 1 mM phenylmethylsulfonylfluoride, 3 mM benzamidine, 5 μM pepstatin A, 10 μM leupeptin). Western blot was carried out as described above.
(§4) Screening of phosphorylated proteins by phospho specific antibodies was carried out by Kinexus, Vancouver, B. C., Canada. HT-H cells and A431 cells grown as monolayers were serum starved by culturing in medium lacking FCS for 2 days. Cells were incubated in phosphorylation medium without FCS and then stimulated at 37° C. for 0 min˜120 min in medium containing recombinant human EGF (20 ng/ml) with or without GWRQ peptide.

HT-H cells [2] = assay: Western blot for tyrosine phosphorylated proteins, HT-H cells; type: cell-based, human; settings: serum-depleted medium, 30 min
Experimental: as §3, §4

ErbB4 [3] = assay: Tyrosine kinase activity assay of anti-ErbB4 immunoprecipitates, A431 cells; type: cell-based; settings: GWRQ peptide 5 μg/ml, EGF 20 ng/ml
Experimental: as §1, §2

HT-H cells [4] = assay: Activation of HT-H cells, monomeric versus branched peptide; type: cell-based, human

Row | Substance | ErbB4 kinase activity in HT-H cells (ErbB4 [1]) | EGFR / tyrosine phosphorylation in A431 cells (A431 cells) | EGFR / tyrosine phosphorylation in HT-H cells (HT-H cells [2]) | ErbB4 kinase activity in A431 cells (ErbB4 [3]) | concentration needed to activate HT-H cells (HT-H cells [4]) [µg/mL] | efficiency relative to octameric branched GWRQ peptide (GWRQ-MAP) (HT-H cells [4]; less efficiency)
1 | EGF: recombinant human EGF (NSDSECPLSHDGYCLHDGVCMYIEALDKYACNCVVGYIGERCQYRDLKWWELR) | activated | caused EGFR phosphorylation | no detectable EGFR phosphorylation | activated |  | 
2 | monomeric GWRQ peptide: a single linear GWRQ peptide |  |  |  |  | 200 to 500 | about 100 times
